Data: ChEMBL document CHEMBL4265943, “Design and synthesis of potent dual inhibitors of JAK2 and HDAC based on fusing the pharmacophores of XL019 and vorinostat” (Eur J Med Chem, 2018)

Assays:
[1] = test system: HCT-116; assay: Induction of apoptosis in human HCT116 cells assessed as late apoptotic cells at 1.14 uM after 72 hrs by Annexin V-FITC/propidium iodide staining based flow cytometry (reference value: 1.45%); assay type: functional
[2] = organism: Homo sapiens; assay: Selectivity ratio of IC50 for human JAK1 to IC50 for human JAK2
[3] = biological target: Non-receptor tyrosine-protein kinase TYK2 (Homo sapiens, UniProt P29597); assay: Inhibition of human TYK2 using KKSRGDYMTMQIG as substrate preincubated for 20 mins followed by [gamma33P]ATP addition measured after 120 mins by ion exchange filter paper method
Non-receptor tyrosine-protein kinase TYK2, sequence (P29597 whole entry): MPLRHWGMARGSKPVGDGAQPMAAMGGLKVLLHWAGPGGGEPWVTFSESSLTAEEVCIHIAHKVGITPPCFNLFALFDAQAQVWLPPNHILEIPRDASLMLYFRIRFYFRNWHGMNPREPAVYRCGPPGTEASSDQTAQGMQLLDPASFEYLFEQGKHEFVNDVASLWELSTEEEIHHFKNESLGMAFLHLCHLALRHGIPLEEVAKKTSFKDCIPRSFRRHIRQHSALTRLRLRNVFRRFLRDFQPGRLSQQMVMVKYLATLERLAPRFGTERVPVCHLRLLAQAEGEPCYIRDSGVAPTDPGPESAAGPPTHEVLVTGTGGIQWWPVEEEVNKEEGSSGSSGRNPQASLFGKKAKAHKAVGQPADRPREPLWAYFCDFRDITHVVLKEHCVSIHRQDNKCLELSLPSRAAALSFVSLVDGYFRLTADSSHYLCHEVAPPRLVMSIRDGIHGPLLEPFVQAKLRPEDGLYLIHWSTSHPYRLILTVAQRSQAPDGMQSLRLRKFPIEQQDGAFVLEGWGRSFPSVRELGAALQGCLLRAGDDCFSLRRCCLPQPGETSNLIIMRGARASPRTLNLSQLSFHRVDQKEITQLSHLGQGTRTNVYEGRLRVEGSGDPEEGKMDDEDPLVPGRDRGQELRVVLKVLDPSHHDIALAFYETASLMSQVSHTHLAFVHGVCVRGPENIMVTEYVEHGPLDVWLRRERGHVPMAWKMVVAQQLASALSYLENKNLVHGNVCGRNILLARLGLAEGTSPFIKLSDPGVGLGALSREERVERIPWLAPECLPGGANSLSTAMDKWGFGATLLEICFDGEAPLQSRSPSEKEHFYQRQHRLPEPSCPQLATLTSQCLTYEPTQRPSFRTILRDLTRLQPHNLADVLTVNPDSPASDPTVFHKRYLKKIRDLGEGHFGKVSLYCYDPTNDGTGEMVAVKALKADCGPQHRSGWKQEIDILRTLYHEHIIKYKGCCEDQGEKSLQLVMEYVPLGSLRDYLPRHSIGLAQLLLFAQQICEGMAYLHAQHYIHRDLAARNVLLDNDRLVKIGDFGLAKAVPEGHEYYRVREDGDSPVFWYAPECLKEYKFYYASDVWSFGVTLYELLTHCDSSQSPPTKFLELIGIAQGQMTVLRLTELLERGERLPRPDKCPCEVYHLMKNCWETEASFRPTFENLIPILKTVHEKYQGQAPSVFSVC

[4] = test system: PC-3; assay: Induction of apoptosis in human PC3 cells assessed as live cells at 0.71 uM after 72 hrs by Annexin V-FITC/propidium iodide staining based flow cytometry (reference value: 96.36%); assay type: functional
[5] = test system: MDA-MB-231; assay: Induction of apoptosis in human MDA-MB-231 cells assessed as late apoptotic cells at 0.9 uM after 72 hrs by Annexin V-FITC/propidium iodide staining based flow cytometry (reference value: 2.12%); assay type: functional
[6] = test system: PC-3; assay: Antiproliferative activity against human PC3 cells after 72 hrs by MTT assay; assay type: functional, cell-based; details: PC-3, 72 h
[7] = test system: MDA-MB-231; assay: Induction of apoptosis in human MDA-MB-231 cells assessed as necrotic cells at 0.9 uM after 72 hrs by Annexin V-FITC/propidium iodide staining based flow cytometry (reference value: 5.45%); assay type: functional
[8] = Selectivity index, ratio of CC50 for mouse TAMH cells to IC50 for human MDA-MB-231 cells; assay type: toxicity; details: TAMH cells (CC50) and MDA-MB-231 cells (IC50)
[9] = biological target: Histone deacetylase 1 (Homo sapiens, UniProt Q13547); assay: Inhibition of HDAC1 (unknown origin) using Arg-His-Lys-Lys(Ac) as substrate preincubated with enzyme followed by substrate addition for 2 hrs and measured for 1.5 hrs at 15 mins time interval by fluorescence assay
Histone deacetylase 1, sequence (Q13547 whole entry): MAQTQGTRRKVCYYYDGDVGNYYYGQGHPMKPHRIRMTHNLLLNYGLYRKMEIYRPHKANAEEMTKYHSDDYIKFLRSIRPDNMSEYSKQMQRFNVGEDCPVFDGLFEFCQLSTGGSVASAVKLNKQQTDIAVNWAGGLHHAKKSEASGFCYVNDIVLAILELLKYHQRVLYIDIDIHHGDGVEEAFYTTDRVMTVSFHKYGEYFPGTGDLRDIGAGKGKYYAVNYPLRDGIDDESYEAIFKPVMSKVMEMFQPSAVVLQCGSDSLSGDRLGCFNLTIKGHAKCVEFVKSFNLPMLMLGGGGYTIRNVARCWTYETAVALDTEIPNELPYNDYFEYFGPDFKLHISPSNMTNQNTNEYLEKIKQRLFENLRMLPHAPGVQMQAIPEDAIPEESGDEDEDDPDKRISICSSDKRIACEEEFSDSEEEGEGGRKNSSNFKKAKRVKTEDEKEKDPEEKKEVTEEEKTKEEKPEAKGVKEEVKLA

[10] = test system: MCF7; assay: Induction of apoptosis in human MCF7 cells assessed as live cells at 0.86 uM after 72 hrs by Annexin V-FITC/propidium iodide staining based flow cytometry (reference value: 95.05%); assay type: functional
[11] = Selectivity index, ratio of CC50 for human AC10 cells to IC50 for human PC3 cells; assay type: toxicity; details: AC10 cells (CC50) and PC3 cells (IC50)
[12] = test system: HCT-116; assay: Induction of apoptosis in human HCT116 cells assessed as necrotic cells at 1.14 uM after 72 hrs by Annexin V-FITC/propidium iodide staining based flow cytometry (reference value: 1.54%); assay type: functional
[13] = Selectivity index, ratio of CC50 for mouse TAMH cells to IC50 for human MCF7 cells; assay type: toxicity; details: TAMH cells (CC50) and MCF7 cells (IC50)
[14] = biological target: Tyrosine-protein kinase JAK2 (Homo sapiens, UniProt O60674); assay: Inhibition of human JAK2 using poly(Glu:Tyr)(4:1) as substrate preincubated for 20 mins followed by [gamma33P]ATP addition measured after 120 mins by ion exchange filter paper method
Tyrosine-protein kinase JAK2, sequence (O60674 whole entry): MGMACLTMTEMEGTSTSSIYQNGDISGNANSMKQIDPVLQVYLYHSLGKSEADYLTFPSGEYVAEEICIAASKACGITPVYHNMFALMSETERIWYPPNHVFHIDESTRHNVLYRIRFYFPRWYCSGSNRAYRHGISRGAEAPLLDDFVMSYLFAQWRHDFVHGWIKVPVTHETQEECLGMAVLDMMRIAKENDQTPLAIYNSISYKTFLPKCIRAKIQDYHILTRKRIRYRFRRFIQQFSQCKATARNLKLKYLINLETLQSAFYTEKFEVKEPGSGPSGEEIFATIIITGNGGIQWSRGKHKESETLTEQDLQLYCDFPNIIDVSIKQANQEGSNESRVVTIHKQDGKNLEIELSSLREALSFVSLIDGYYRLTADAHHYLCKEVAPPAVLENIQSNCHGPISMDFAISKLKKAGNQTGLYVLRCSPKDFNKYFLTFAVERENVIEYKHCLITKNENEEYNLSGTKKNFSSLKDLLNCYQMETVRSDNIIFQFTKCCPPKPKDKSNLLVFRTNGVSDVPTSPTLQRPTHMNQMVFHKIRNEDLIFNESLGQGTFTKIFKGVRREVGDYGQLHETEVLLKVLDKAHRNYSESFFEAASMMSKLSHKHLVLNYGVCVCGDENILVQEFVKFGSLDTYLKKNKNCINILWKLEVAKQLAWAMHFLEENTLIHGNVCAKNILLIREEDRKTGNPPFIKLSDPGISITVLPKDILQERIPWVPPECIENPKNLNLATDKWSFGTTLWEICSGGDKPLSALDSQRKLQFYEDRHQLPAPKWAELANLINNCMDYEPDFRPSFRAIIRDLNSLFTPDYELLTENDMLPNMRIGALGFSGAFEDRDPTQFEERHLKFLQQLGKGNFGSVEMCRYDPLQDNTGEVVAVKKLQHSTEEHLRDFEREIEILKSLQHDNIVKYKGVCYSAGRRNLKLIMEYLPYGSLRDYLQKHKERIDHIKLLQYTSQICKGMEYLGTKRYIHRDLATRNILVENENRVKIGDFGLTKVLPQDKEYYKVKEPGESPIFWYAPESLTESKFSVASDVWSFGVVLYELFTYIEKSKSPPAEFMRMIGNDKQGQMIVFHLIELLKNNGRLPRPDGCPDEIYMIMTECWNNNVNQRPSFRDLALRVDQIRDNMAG

[15] = Selectivity index, ratio of CC50 for mouse TAMH cells to IC50 for human HCT116 cells; assay type: toxicity; details: TAMH cells (CC50) and HCT116 cells (IC50)
[16] = test system: MDA-MB-231; assay: Induction of apoptosis in human MDA-MB-231 cells assessed as live cells at 0.9 uM after 72 hrs by Annexin V-FITC/propidium iodide staining based flow cytometry (reference value: 90.98%); assay type: functional
[17] = biological target: T1, Protein deacetylase HDAC6 (Homo sapiens, UniProt Q9UBN7); assay: Inhibition of HDAC6 (unknown origin) using Arg-His-Lys-Lys(Ac) as substrate preincubated with enzyme followed by substrate addition for 2 hrs and measured for 1.5 hrs at 15 mins time interval by fluorescence assay
T1 sequence (Q9UBN7 whole entry): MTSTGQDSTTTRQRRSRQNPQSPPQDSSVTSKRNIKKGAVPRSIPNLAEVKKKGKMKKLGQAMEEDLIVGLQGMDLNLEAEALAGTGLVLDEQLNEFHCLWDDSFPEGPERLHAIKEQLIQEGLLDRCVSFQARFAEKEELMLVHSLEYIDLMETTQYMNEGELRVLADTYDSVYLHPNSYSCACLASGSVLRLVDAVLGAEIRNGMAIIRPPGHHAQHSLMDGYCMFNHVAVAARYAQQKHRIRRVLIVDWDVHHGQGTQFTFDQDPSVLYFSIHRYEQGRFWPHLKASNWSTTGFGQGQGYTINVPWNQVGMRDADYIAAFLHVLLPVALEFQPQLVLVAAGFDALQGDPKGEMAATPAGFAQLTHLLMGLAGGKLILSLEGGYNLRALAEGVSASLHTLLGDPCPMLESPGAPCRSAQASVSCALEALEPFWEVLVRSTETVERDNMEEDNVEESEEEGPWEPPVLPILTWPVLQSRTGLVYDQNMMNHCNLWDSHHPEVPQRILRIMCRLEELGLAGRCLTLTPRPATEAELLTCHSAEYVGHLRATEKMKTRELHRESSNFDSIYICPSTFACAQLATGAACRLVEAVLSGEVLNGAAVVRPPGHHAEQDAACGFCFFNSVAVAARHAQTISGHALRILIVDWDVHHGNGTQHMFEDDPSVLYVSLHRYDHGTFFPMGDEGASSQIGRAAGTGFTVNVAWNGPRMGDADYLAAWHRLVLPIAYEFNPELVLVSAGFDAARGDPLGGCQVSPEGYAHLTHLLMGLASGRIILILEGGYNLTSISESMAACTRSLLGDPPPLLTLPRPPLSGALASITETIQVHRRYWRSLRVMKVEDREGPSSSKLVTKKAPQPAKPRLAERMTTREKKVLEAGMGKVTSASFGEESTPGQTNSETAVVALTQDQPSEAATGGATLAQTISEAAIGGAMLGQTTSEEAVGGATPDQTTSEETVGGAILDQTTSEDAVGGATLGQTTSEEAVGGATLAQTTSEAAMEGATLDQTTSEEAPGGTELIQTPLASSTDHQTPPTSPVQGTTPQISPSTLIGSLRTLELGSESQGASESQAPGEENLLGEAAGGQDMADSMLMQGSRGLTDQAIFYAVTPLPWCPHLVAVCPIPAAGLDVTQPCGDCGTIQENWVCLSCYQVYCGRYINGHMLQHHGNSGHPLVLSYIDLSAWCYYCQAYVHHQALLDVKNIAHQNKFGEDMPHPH

[18] = test system: MCF7; assay: Induction of apoptosis in human MCF7 cells assessed as late apoptotic cells at 0.86 uM after 72 hrs by Annexin V-FITC/propidium iodide staining based flow cytometry (reference value: 1.59%); assay type: functional
[19] = Antiproliferative activity against mouse TAMH cells after 72 hrs by MTT assay; assay type: cell-based
[20] = Selectivity index, ratio of CC50 for human AC10 cells to IC50 for human MDA-MB-231 cells; assay type: toxicity; details: AC10 cells (CC50) and MDA-MB-231 cells (IC50)
[21] = organism: Homo sapiens; assay: Selectivity ratio of IC50 for human TYK2 to IC50 for human JAK2
[22] = organism: Homo sapiens; assay: Selectivity ratio of IC50 for human JAK3 to IC50 for human JAK2
[23] = test system: HCT-116; assay: Antiproliferative activity against human HCT116 cells after 72 hrs by MTT assay; assay type: functional, cell-based; details: HCT-116, 72 h

Ratio IC50 [2]: 16.8 | IC50 [3]: 79.4 nM | IC50 [6]: 640 nM | IC50 [9]: 56 nM | IC50 [14]: 3.1 nM | IC50 [17]: 1.2 nM | Ratio IC50 [21]: 25.6 | Ratio IC50 [22]: 25.8 | IC50 [23]: 1050 nM
Structure (SMILES): O=C(CCCCCCC(=O)Nc1ccc(-c2ccnc(Nc3ccc(N4CCOCC4)cc3)n2)cc1)NO
Activity [1]: 12.12% | Activity [4]: 39.88% | Activity [5]: 39.98% | Activity [7]: 5.87% | selectivity ratio [8]: 6.45 | Activity [10]: 37.54% | selectivity ratio [11]: 6.22 | Activity [12]: 4.29% | selectivity ratio [13]: 9.13 | selectivity ratio [15]: 6.09 | Activity [16]: 10.29% | Activity [18]: 24.84% | CC50 at 72 h [19]: 6390 nM | selectivity ratio [20]: 4.02
